1 compound from patent publication US8158389B2, “Products and methods for in vivo secretion of monatin” (priority 2005, dated 2012) can be followed below.

Where “and” joins values, the source holds several entries; their conditions need not be identical. Identical values can stand only once.

The target in test [1] is T1, AcrAB efflux pump (Escherichia coli, UniProt P31224).
T1 construct: endogenous in cells; host or cells: E. coli BL21 (DE3) with aspCproApET32 plus pProNde with or without tolC
T1 sequence (P0AE06 25-397): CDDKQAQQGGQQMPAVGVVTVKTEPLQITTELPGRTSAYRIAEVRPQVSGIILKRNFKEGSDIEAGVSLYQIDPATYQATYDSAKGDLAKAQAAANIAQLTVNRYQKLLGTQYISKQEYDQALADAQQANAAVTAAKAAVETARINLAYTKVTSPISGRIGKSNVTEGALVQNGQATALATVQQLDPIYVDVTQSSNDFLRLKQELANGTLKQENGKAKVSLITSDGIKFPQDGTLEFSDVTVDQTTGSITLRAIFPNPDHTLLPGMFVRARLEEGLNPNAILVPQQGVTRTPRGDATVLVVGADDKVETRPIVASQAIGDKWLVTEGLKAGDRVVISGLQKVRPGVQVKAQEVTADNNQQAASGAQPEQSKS
T1 sequence (P02930 23-493, further chain): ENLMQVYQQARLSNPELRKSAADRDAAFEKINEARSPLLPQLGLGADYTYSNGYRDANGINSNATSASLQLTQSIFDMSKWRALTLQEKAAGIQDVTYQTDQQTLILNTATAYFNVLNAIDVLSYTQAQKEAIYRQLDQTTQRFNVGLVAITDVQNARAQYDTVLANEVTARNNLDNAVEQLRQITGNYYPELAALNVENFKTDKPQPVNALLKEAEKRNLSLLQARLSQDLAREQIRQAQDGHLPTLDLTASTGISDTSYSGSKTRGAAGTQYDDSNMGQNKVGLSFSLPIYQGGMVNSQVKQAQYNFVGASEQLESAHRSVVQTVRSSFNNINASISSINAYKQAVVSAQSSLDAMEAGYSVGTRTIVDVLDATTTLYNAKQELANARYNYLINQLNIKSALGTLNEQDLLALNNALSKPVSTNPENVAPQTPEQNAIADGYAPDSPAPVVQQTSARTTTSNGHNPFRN
T1 sequence (P31224 whole entry): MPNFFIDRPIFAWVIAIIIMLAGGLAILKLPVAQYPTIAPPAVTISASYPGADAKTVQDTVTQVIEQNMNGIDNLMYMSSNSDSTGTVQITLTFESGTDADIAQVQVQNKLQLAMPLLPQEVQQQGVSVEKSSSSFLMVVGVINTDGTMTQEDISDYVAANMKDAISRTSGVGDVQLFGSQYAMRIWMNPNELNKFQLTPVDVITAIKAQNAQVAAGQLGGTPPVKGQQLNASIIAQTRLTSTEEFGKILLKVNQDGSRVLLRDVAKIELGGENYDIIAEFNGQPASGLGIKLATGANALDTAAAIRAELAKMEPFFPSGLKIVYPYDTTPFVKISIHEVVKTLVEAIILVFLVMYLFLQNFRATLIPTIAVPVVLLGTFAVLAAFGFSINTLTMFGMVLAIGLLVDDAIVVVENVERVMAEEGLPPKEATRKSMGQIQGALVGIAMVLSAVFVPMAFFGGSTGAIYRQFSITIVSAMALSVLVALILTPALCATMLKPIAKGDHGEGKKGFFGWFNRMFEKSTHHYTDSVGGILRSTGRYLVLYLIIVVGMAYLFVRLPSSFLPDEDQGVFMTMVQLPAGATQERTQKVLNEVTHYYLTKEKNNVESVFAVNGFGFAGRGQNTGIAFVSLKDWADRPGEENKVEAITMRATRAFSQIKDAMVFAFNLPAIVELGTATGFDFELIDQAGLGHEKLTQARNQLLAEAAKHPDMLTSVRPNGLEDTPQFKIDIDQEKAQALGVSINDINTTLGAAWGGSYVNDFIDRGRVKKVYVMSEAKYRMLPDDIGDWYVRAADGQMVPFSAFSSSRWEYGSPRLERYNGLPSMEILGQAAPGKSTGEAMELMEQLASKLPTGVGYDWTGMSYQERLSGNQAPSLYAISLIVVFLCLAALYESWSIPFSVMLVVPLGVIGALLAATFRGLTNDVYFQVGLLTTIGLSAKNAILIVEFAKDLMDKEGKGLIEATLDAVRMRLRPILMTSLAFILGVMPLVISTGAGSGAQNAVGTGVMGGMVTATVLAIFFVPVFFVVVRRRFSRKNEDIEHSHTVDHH
As to the kind of experiment: Monatin excretion with 2.5 mM sodium decanoate treatment, strains with or without tolC overexpression. The test is classed as cell-based. The following applies: for Monatin/dry cell weight, 25 hr average / Monatin/dry cell weight, 50 hr average: n = 2. As for the experimental part: Strains used for the experiment included E. coli BL21 (DE3) : : aspCproApET32 and tolC pProNde or pProNde without tolC. For inoculum, the E. coli strains were grown overnight at 37° C. and 250 rpm in Luria-Bertani (“LB”) medium with 100 μg/mL ampicillin and 50 μg/mL kanamycin.
For the experimental treatments, Trp-1+glucose medium, a minimal medium that has been used for increased production of tryptophan in E. coli cells (Zeman, et al. Folia Microbiol. 35:200-204, (1990)), was prepared as follows. To 800 mL nanopure water the following reagents were added: 2 g (NH4)2SO4 and 13.6 g KE2PO4. The pH was adjusted to 7.0, the volume was increased to 948 mL, and the medium was autoclaved. Following sterilization, 0.2 g MgSO4.7H2O, 0.01 g CaCl2.2H2O, and 0.5 mg FeSO4.7H2O were added to the medium in a 1.8 mL volume followed by addition of 0.2 mL of Neidhardt's micronutrient solution. Neidhardt, F. C., et al., “Culture medium for Enterobacteria,” J. Bacteriol. 119:736-746, (1974). Neidhardt's medium includes (per liter): 0.18 g (NH4)6(MO7)24-4H2O, 1.24 g H3BO3, 0.36 g CoCl2.6H2O, 0.12 g CuSO4 (anhydrous), 0.8 g MnCl2.4H2O, and 0.14 g ZnSO4.7H2O. A 50% glucose solution was prepared separately and sterile-filtered. Forty mL of glucose solution and 10 mL of 1 M 3-Morpholinopropanesulfonic acid (“MOPS”) buffer were added to the base medium (950 mL) for a 1 L final volume.
Conditions for the treatments included 30° C. throughout the experiment and 250 rpm agitation. At 0.4 OD600 nm, induction of the plasmid genes was initiated. At induction, 0.5 mM IPTG, 0.5% arabinose, 0.5 mM pyridoxine hydrochloride, and 0.2 mL of Balch's vitamins (Balch, W. E., et al., “Methanogens: reevaluation of a unique biological group,” Microbiol. Rev. 43:260-296, (1979)) were added. […] Some treatments included 2.5 mM sodium decanoate addition at 3 hours following induction.
The amount of monatin excreted was determined using the method described in Example 13.
In this example, the combination of induction of the AcrAB efflux pump with increased availability of the TolC channels was evaluated. E. coli strains overexpressing the tolC gene were additionally subjected to treatment with 2.5 mM sodium decanoate to simultaneously induce the AcrAB pumps.

Test [2] relates to E. coli MG1655 ΔAcrAB. As to the kind of experiment: Monatin excretion with 2.5 mM sodium decanoate, E. coli MG1655 ΔAcrAB with or without marA (24, 30, 72 h). It is filed as cell-based, Escherichia coli. The following applies: n = 2.
The subject of test [3] is E. coli BL21 DE3. As to the kind of experiment: Monatin excretion with sodium decanoate, E. coli BL21 DE3 with or without cysH deletion. The test is classed as cell-based, Escherichia coli. The following applies: 2.5 mM sodium decanoate, n = 2. The protocol:
For inoculum, the E. coli strains BL21 DE3 aspC proA pET32 and BL21 DE3 ΔcysH: : aspCproA pET32 were grown overnight at 37° C. and 250 rpm in Luria-Bertani (“LB”) medium with 100 μg/mL ampicillin.
For the experimental treatments, Trp-1+glucose medium, a minimal medium that has been used for increased production of tryptophan in E. coli cells (Zeman et al. Folia Microbiol. 35:200-204, (1990)), was prepared as follows. To 800 mL nanopure water the following reagents were added: 2 g (NH4)2SO4 and 13.6 g KH2PO4. The pH was adjusted to 7.0, the volume was increased to 948 mL, and the medium was autoclaved. Following sterilization, 0.2 g MgSO4.7H2O, 0.01 g CaCl2.2H2O, and 0.5 mg FeSO4.7H2O were ad to the medium in a 1.8 mL volume followed by addition of 0.2 mL of Neidhardt's micronutrient solution. Neidhardt, F. C., et al., “Culture medium for Enterobacteria,” J. Bacteriol. 119:736-746 (1974). Neidhardt's medium includes (per liter): 0.18 g (NH4)6(MO7)24.4H2O, 1.24 g H3BO3, 0.36 g CoCl2.6H2O, 0.12 g CuSO4 (anhydrous), 0.8 g MnCl2.4H2O, and 0.14 g ZnSO4.7H2O. A 50% glucose solution was prepared separately and sterile-filtered. Forty mL of glucose solution and 10 mL of 1 M 3-Morpholinopropanesulfonic acid (“MOPS”) buffer were added to the base medium (950 mL) for a 1 L final volume.
Conditions for the treatments included 250 rpm agitation throughout and 37° C. up to induction, then, 30° C. following induction. At an OD600 nm between 0.44-0.52, induction of the plasmid genes was initiated. At induction, 1.0 mM IPTG, 0.5 mM pyridoxine hydrochloride, and 0.2 mL's of Balch's vitamins were added. Additions of 10 g/L L-tryptophan, 10 g/L sodium pyruvate, 0.04 mM pyridoxal-5′-phosphate (“PLP”) and 0.2% Tween® 20 (polyoxyethylene 20-sorbitan monolaurate) were made 3.0 hours following induction. At 3 hours after the initial feeding of pyruvate, another 10 g/L of sodium pyruvate was added to each flask. Some treatments included 2.5 mM sodium decanoate (or sterile, distilled water for the 0 mM decanoate treatment) addition at 3.0 hours following induction.

Setting [4] is: E. coli BL21 DE3 aspC proApET32 & pProNde w/o tolC (control).
Setting [5] is: E. coli BL21 DE3 aspC proApET32 & tolCpProNde.
Where [6] appears, read: ΔAcrAB AspC ProA pProNde del pUC19 (control).
Setting [7] is: E. coli BL21 DE3 aspC proA pET32.
Setting [8] is: E. coli BL21 DE3 ΔcysH::aspC proA pET32.

As to `CCCCCCCCCC(=O)[O-].[Na+]` [sodium decanoate], in test [1] (setting [4]), the “Monatin/dry cell weight, 25 hr” value was 0.19 mg monatin/g dcw and 0.17 mg monatin/g dcw; the “Monatin/dry cell weight, 50 hr” value was 0.09 mg monatin/g dcw and 0.11 mg monatin/g dcw. In test [1] (setting [5]), the “Monatin/dry cell weight, 25 hr” value is 8.88 mg monatin/g dcw and 12.19 mg monatin/g dcw; the “Monatin/dry cell weight, 50 hr” value is 7.99 mg monatin/g dcw and 10.23 mg monatin/g dcw. In test [1] (pProNde w/o tolC (control)), the “Monatin/dry cell weight, 25 hr average” value worked out at 0.18 mg monatin/g dcw and the “Monatin/dry cell weight, 50 hr average” value is recorded as 0.10 mg monatin/g dcw. Besides, in test [1] (tolCpProNde), the “Monatin/dry cell weight, 25 hr average” value turned out to be 10.53 mg monatin/g dcw and the “Monatin/dry cell weight, 50 hr average” value turned out to be 9.11 mg monatin/g dcw. Besides, in test [2] (setting [6]), the “Mean monatin per dry cell weight, 24” value was 22.2 mg/g; the “Mean monatin per dry cell weight, 30” value was 20.6 mg/g; the “Mean monatin per dry cell weight, 72” value was determined as 62.6 mg/g. For the same compound, in test [2] (ΔAcrAB with marA insert), the “Mean monatin per dry cell weight, 24” value is 54.6 mg/g; the “Mean monatin per dry cell weight, 30” value is recorded as 56.0 mg/g; the “Mean monatin per dry cell weight, 72” value was 209.0 mg/g. Moreover, in test [3] (setting [7]), the “Monatin/dry cell wt., 24 hours” value is given as 70.9 mg/g; the “Monatin/dry cell wt., 30 hours” value worked out at 75.0 mg/g; the “Monatin/dry cell wt., 48 hours” value is recorded as 44.0 mg/g. Moreover, in test [3] (setting [8]), the “Monatin/dry cell wt., 24 hours” value stood at 115.0 mg/g; the “Monatin/dry cell wt., 30 hours” value was determined as 103.1 mg/g; the “Monatin/dry cell wt., 48 hours” value is reported as 73.3 mg/g.
